{"source": "ChEMBL document CHEMBL3822369", "about": "“Structure-Based Design of an in Vivo Active Selective BRD9 Inhibitor” (J Med Chem, 2016)", "key": {"[1]": {"assay": "Oral bioavailability in BomTac:NMRI-Foxn1nu mouse at 20 mg/kg, administered as suspension", "assay_type": "ADME, organism-based", "conditions": "in vivo"}, "Mus musculus [2]": {"system": "Mus musculus", "assay": "AUC (0 to last) in plasma of CIEA-NOG mouse xenografted with human EOL-1 cells at 180 mg/kg, po administered qd for day 5 to 17 and day 20 to 22 post tumor transplantation", "assay_type": "ADME, organism-based, EOL1", "set-up": "dose 180 mg/kg, time 0 - last, route oral", "conditions": "in vivo"}, "[3]": {"assay": "Apparent permeability in human Caco2 cells across apical side to basolateral side at 10 uM by LC-MS/MS analysis", "assay_type": "ADME, cell-based", "conditions": "Caco-2"}, "[4]": {"assay": "AUC (0 to last) in BomTac:NMRI-Foxn1nu mouse at 180 mg/kg, po administered as suspension", "assay_type": "ADME, organism-based", "set-up": "dose 180 mg/kg, time 0 - last, route oral", "conditions": "in vivo"}, "[5]": {"assay": "Aqueous solubility of the compound at pH 6.8 by UPLC/UV method", "assay_type": "physicochemical", "conditions": "buffer"}, "Mus musculus [6]": {"system": "Mus musculus", "assay": "Clearance in BomTac:NMRI-Foxn1nu mouse plasma at 5 mg/kg, iv administered as bolus", "assay_type": "ADME, organism-based", "conditions": "in vivo"}, "[7]": {"assay": "Cmax in BomTac:NMRI-Foxn1nu mouse at 180 mg/kg, po administered as suspension", "assay_type": "ADME, organism-based", "set-up": "dose 180 mg/kg, route oral", "conditions": "in vivo"}, "Mus musculus [8]": {"system": "Mus musculus", "assay": "(§1) Oral bioavailability in BomTac:NMRI-Foxn1nu mouse at 180 mg/kg, administered as suspension", "assay_type": "ADME, organism-based", "conditions": "in vivo"}, "[9]": {"assay": "AUC (0 to last) in BomTac:NMRI-Foxn1nu mouse at 20 mg/kg, po administered as suspension", "assay_type": "ADME, organism-based", "set-up": "dose 20 mg/kg, time 0 - last, route oral", "conditions": "in vivo"}, "[10]": {"assay": "Volume of distribution at steady state in BomTac:NMRI-Foxn1nu mouse plasma at 5 mg/kg, iv administered as bolus", "assay_type": "ADME, organism-based", "conditions": "read-out: Vdss"}, "[11]": {"assay": "Cmax in BomTac:NMRI-Foxn1nu mouse at 20 mg/kg, po administered as suspension", "assay_type": "ADME, organism-based", "set-up": "dose 20 mg/kg, route oral", "conditions": "in vivo"}, "[12]": {"assay": "as §1", "assay_type": "ADME, organism-based", "conditions": "BomTac:NMRI-Foxn1nu, in vivo"}}}
{"smiles": "COc1cc(-c2cn(C)c(=O)c3cnccc23)c(OC)cc1CN(C)C", "values": [{"measurement": "bioavailability", "setting": "[1]", "value": 88, "unit": "%"}, {"measurement": "AUClast", "setting": "Mus musculus [2]", "value": 268, "unit": "µM·h"}, {"measurement": "Papp A→B at 10 µM", "setting": "[3]", "value": 110, "unit": "nm/s"}, {"measurement": "AUC(0-t)", "setting": "[4]", "value": 226, "unit": "µM·h"}, {"measurement": "solubility", "setting": "[5]", "value": "> 0.09", "unit": "mg/mL"}, {"measurement": "CL", "setting": "Mus musculus [6]", "value": 65, "unit": "%"}, {"measurement": "Cmax", "setting": "[7]", "value": 35, "unit": "µM"}, {"measurement": "F", "setting": "Mus musculus [8]", "value": 151, "unit": "%"}, {"measurement": "AUC(0-t)", "setting": "[9]", "value": 15, "unit": "µM·h"}, {"measurement": "Vd", "setting": "[10]", "value": 2.1, "unit": "L/kg"}, {"measurement": "Cmax", "setting": "[11]", "value": 5.4, "unit": "µM"}]}
{"smiles": "COc1cc(-c2cn(C)c(=O)c3cnccc23)cc(OC)c1CN(C)C", "values": [{"measurement": "bioavailability", "setting": "[1]", "value": 39, "unit": "%"}, {"measurement": "Papp A→B at 10 µM", "setting": "[3]", "value": 14, "unit": "nm/s"}, {"measurement": "AUC(0-t)", "setting": "[4]", "value": 108, "unit": "µM·h"}, {"measurement": "solubility", "setting": "[5]", "value": "> 0.091", "unit": "mg/mL"}, {"measurement": "CL", "setting": "Mus musculus [6]", "value": 57, "unit": "%"}, {"measurement": "Cmax", "setting": "[7]", "value": 25, "unit": "µM"}, {"measurement": "bioavailability", "setting": "[12]", "value": 64, "unit": "%"}, {"measurement": "AUC(0-t)", "setting": "[9]", "value": 7.5, "unit": "µM·h"}, {"measurement": "Vd", "setting": "[10]", "value": 1.6, "unit": "L/kg"}, {"measurement": "Cmax", "setting": "[11]", "value": 3, "unit": "µM"}]}
